From patent publication US6787570B2, “Substituted N-cycloalkyl-N-benzyl aminoalcohol compounds useful for inhibiting cholesteryl ester transfer protein activity” (Pfizer, Inc., priority 1999, dated 2004) come the findings set out here.

By IC50 is commonly meant the concentration needed to halve the response being measured.

The target in the assay is T1, Human recombinant CETP (Homo sapiens, UniProt P11597).
T1 construct: made in house; host or cells: CHO cells (serum-free conditioned medium)
T1 sequence (P11597 18-493): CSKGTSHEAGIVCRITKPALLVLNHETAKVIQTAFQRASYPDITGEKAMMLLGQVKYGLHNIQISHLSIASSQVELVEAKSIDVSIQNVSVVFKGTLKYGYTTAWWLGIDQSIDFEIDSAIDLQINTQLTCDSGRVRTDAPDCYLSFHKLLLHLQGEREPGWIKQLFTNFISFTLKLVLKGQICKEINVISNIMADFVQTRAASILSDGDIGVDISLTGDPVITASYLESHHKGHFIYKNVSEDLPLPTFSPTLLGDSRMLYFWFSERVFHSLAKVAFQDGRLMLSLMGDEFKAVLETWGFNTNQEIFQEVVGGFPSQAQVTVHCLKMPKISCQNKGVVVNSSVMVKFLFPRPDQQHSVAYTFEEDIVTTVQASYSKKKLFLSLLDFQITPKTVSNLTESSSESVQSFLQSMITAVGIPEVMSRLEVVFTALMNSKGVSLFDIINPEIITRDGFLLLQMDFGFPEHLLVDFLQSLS
Put plainly: Assay of CETP Inhibition Using Purified Components (Reconstituted Buffer Assay). It is filed as biochemical. Particulars: transfer of [3H]CE from HDL to LDL, 2 hours at 37° C. Here is the method: Assay of CETP Inhibition Using Purified Components (Reconstituted Buffer Assay)
The ability of compounds to inhibit CETP activity was assessed using an in vitro assay that measured the rate of transfer of radiolabeled cholesteryl ester ([^3H]CE) from HDL donor particles to LDL acceptor particles. Details of the assay are provided by Glenn, K. C. et al. (Glenn and Melton, “Quantification of Cholesteryl Ester Transfer Protein (CETP): A) CETP Activity and B) Immunochemical Assay of CETP Protein,” Meth. Enzymol., 263, 339-351 (1996)). Human recombinant CETP can be obtained from the serum-free conditioned medium of CHO cells transfected with a cDNA for CETP and purified as described by Wang, S. et al. (J. Biol. Chem. 267, 17487-17490 (1992)). To measure CETP activity, [^3H]CE-labeled-HDL, LDL, CETP and assay buffer (50 mM tris(hydroxymethyl)aminomethane, pH 7.4; 150 mM sodium chloride; 2 mM ethylenediamine-tetraacetic acid (EDTA); 1% bovine serum albumin) were incubated in a final volume of 200 μL, for 2 hours at 37° C. in 96 well plates. Inhibitors were included in the assay by diluting from a 10 mM DMSO stock solution into 16% (v/v) aqueous DMSO so that the final concentration of inhibitor was 800 μM. The inhibitors were then diluted 1:1 with CETP in assay buffer, and then 25 μL of that solution was mixed with 175 μL of lipoprotein pool for assay. Following incubation, LDL was differentially precipitated by the addition of 50 μL of 1% (w/v) dextran sulfate/0.5 M magnesium chloride, mixed by vortex, and incubated at room temperature for 10 minutes. A potion of the solution (200 μL) was transferred to a filter plate (Millipore). After filtration, the radioactivity present in the precipitated LDL was measured by liquid scintillation counting. […] The rate of [^3H]CE transfer using this assay was linear with respect to time and CETP concentration, up to 25-30% of [^3H]CE transferred.
The potency of test compounds was determined by performing the above described assay in the presence of varying concentrations of the test compounds and determining the concentration required for 50% inhibition of transfer of [3H]CE from HDL to LDL. This value was defined as the IC50. The IC50 values determined from this assay are accurate when the IC50 is greater than 10 nM.
`CC1CCC(N(Cc2cccc(C(F)(F)F)c2)CC(O)C(F)(F)F)CC1` (stereo not drawn) [Example 1, 3-[(4-methylcyclohexyl)[[(3-trifluoromethyl)phenyl]methyl]amino]-1,1,1-trifluoro-2-propanol]: the IC50 worked out at 15 µM.
Under `OC(CN(Cc1cccc(OC(F)(F)F)c1)C1CC1)C(F)(F)F` (stereo not drawn) [Example 4] stands 20 µM; under `CC(C)N(Cc1cccc(OC(F)(F)F)c1)CC(O)C(F)(F)F` (stereo not drawn) [Example 5], > 100 µM; under `CCCN(Cc1cccc(OC(F)(F)F)c1)CC(O)C(F)(F)F` (stereo not drawn) [Example 6], > 100 µM.
Under `CC(C)=CCN(CC(O)C(F)(F)F)c1cccc(OC(F)(F)F)c1` (stereo not drawn) [Example 8] stands 45 µM.
Take `CCCCCC=CCN(CC(O)C(F)(F)F)c1cccc(OC(F)(F)F)c1` (stereo not drawn) [Example 9]: the IC50 worked out at 18 µM.
`C#CCN(CC(O)C(F)(F)F)c1cccc(OC(F)(F)F)c1` (stereo not drawn) [Example 10]: the IC50 worked out at 50 µM.
Under `CC(C)CCN(CC(O)C(F)(F)F)c1cccc(OC(F)(F)F)c1` (stereo not drawn) [Example 11] stands 45 µM; under `C=C(CN(CC(O)C(F)(F)F)c1cccc(OC(F)(F)F)c1)C(=O)OC` (stereo not drawn) [Example 12], 60 µM; under `COC(=O)C=CCN(CC(O)C(F)(F)F)c1cccc(OC(F)(F)F)c1` (stereo not drawn) [Example 13], 80 µM.
Under `COCC=CCN(CC(O)C(F)(F)F)c1cccc(OC(F)(F)F)c1` (stereo not drawn) [Example 14] stands 55 µM; under `OC(CN(Cc1ccccc1)CC(O)C(F)(F)F)C(F)(F)F` (stereo not drawn) [Example 15, 1,1′-[(Phenylmethyl)imino]bis[3,3,3-trifluoro-2-propanol]], > 100 µM.
The result for `OC(CN(Cc1cccc(C(F)(F)F)c1)CC(O)C(F)(F)F)C(F)(F)F` (stereo not drawn) [Example 16] reads 15 µM; that for `OC(CN(Cc1ccc(OC(F)(F)F)cc1)CC(O)C(F)(F)F)C(F)(F)F` (stereo not drawn) [Example 17], 60 µM.
For the compound `CCc1cc(Oc2cccc(N(CC3CCCCC3)CC(O)C(F)(F)F)c2)ccc1Cl` (stereo not drawn) [Example 18, 3-[[3-(4-chloro-3-ethylphenoxy)phenyl][3-cyclohexylmethyl]amino]-1,1,1-trifluoro-2-propanol], the IC50 was 11 µM.
